{
  "source": "paper PMC8041276",
  "about": "(ACS Chemical Neuroscience, 2021)",
  "key": {"HepG2 cells [1]": {"tested_on": "HepG2 cells", "assay": "MTT assay, hepatotoxicity in HepG2 cells", "assay_type": "cell-based, human", "conditions": "HepG2, 24 h", "protocol": "(§1) Human hepatocellular carcinoma cells (HepG2) were cultured using standard procedures (protocol from ATCC). Cells were cultured in Eagle’s minimum essential medium (EMEM) in flasks with an area of 25 cm^2 (Falcon), supplemented with 10% of fetal bovine serum (FBS, Life Technologies) with the addition of 100 IU/mL penicillin (Sigma-Aldrich) and 100 μg/mL streptomycin (Sigma-Aldrich) and incubated at 37 °C in a humidified atmosphere with 5% CO2.\nThe MTT assay was used to determine the viability of HepG2 cells incubated in the presence of compound 27 and DOX. Cells were seeded at a density of 2 × 10^4 in 96-well plates. […] Following cell exposure to each compound 10 μL of MTT reagent (Sigma-Aldrich) was added to each well. After 4 h of incubation (37 °C, 5% CO2) the culture medium was aspirated and formazan crystals were dissolved in 100 μL of DMSO. Then, optical density (OD) at 570 nm was determined on a plate reader (Spectra Max iD3, Molecular Devices). Each individual experiment was repeated at least three times."}, "hERG channel": {"biological_target": "T1, hERG channel (Homo sapiens, UniProt Q12809)", "T1 construct": "Eurofins Cerep (contract assay)", "T1 sequence (Q12809 whole entry)": "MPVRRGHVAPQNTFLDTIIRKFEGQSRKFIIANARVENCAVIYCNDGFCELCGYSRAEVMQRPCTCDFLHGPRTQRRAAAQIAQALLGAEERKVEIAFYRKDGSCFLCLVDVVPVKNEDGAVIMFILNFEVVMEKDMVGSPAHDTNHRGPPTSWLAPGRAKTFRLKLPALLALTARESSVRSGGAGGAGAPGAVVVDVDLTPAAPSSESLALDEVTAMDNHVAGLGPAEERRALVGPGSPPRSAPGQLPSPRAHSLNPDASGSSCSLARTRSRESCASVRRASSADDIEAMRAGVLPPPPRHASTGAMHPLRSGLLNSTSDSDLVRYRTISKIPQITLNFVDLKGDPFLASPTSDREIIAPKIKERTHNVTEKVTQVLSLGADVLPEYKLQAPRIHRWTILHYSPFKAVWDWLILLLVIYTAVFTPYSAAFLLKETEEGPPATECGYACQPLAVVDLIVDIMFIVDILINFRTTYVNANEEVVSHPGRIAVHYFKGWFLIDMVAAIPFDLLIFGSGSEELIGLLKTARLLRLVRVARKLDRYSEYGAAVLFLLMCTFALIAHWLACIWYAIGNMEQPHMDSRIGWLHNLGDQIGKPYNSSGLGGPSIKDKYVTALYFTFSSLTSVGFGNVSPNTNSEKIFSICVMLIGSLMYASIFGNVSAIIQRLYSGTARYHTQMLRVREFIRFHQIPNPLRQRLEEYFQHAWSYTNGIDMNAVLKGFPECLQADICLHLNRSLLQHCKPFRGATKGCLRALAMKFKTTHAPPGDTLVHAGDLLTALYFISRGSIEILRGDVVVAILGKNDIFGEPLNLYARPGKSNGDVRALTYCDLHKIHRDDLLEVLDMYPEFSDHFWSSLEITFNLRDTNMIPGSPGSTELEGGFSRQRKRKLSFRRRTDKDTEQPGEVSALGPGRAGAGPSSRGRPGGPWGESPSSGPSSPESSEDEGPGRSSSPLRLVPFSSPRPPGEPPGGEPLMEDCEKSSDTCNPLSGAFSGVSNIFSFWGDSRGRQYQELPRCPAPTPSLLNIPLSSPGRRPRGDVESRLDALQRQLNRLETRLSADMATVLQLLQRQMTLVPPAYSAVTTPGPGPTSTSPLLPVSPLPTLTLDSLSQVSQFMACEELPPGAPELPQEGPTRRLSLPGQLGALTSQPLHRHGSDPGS", "assay": "Eurofins Cerep off-target binding, % inhibition at 1 μM", "protocol": "(§2) Additionally, the affinity of compound 27 at the adrenergic α1A, muscarinic M1, histaminergic H1, dopaminergic D3, serotoninergic 5-HT2C, 5-HT3 receptors, serotonin transporter (SERT), and the human ether-a-go-go-related gene (hERG) channel were evaluated in Eurofins Cerep."}, "α1A adrenoreceptor": {"biological_target": "T2, α1A adrenoreceptor (Homo sapiens, UniProt P35348)", "T2 construct": "Eurofins Cerep (contract assay)", "T2 sequence (P35348 1-466)": "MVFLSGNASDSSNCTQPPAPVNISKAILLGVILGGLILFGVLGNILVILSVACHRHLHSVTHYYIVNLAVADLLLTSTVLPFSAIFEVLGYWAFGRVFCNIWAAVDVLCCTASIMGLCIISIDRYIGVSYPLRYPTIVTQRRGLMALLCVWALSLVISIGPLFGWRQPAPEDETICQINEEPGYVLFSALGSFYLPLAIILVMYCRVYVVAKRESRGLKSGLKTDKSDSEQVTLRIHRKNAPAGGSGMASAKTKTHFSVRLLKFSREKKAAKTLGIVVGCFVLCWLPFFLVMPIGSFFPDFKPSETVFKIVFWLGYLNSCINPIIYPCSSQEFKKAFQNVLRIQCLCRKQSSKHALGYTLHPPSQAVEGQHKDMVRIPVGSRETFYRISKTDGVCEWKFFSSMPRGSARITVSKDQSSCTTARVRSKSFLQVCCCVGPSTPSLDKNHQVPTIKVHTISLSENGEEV", "assay": "Eurofins Cerep off-target binding, % inhibition at 1 μM", "protocol": "as §2"}, "[2]": {"tested_on": "Salmonella typhimurium TA100", "conditions": "without S9 fraction", "protocol": "Ames microplate fluctuation protocol (MPF) assay was performed with Salmonella typhimurium strain TA100, enabling the detection base substitution mutations. Bacterial strain and exposure and indicator medium were purchased from Xenometrix AG (Allschwil, Switzerland). The mutagenic potential of tested structures was evaluated by incubation of bacteria, incapable of producing histidine, with particular concentration of test compounds for 90 min in exposure medium, containing limited amount of histidine. The occurrence of reversion events to histidine prototrophy was observed as a growth of bacteria in the indicator medium without histidine after 48 h of incubation in room temperature. Bacterial growth in 384-well plates was visualized by color change of medium from violet to yellow due to addition of pH indicator dye. Compound was classified as mutagenic, if the fold increase in number of positive wells over the medium control baseline was greater than 2.0. The solvent control baseline was defined as the mean number of positive wells in the negative control sample, increased by one standard deviation. 1% DMSO in media was used as a negative and 4-nitroquinoline N-oxide (NQNO) as positive control. The experiment was performed in triplicate. Fraction S9 was not added."}, "HepG2 cells [3]": {"tested_on": "HepG2 cells", "assay": "LDH assay, hepatotoxicity in HepG2 cells", "assay_type": "cell-based, human", "conditions": "HepG2, 24 h, 0.1–25 μM", "protocol": "as §1\nCells were seeded at density 2 × 10^4 cells/per well in […] plates. After 24 h, compound 27 and reference standard DOX (highly cytotoxic agent) were added to final concentrations of 0.1–150 μM. After 24 h incubation, plates were centrifuged (200g, 2 min) and 50 μL of the supernatant was transferred into the corresponding 96-well plate. Subsequently, 50 μL of LDH-reaction mixture prepared according to the manufacturer’s instructions (Invitrogen) was added to each well. Incubation was conducted in darkness for 30 min at room temperature. Next, stop solution was added and absorbance was measured at 490 nm (A490) using a plate reader (Spectra Max iD3, Molecular Devices). Cytotoxicity was determined as follows: cytotoxicity (%) = [(compound LDH activity – spontaneous LDH activity)/(maximum LDH activity – spontaneous LDH activity)] × 100. The maximum LDH activity was prepared by treating cells with lysis buffer. […]"}},
  "data": [
    {"molecule": "O=C(N[C@@H]1CCNC1)c1ccn(S(=O)(=O)c2cccc(Cl)c2)c1-c1ccc(F)cc1", "note": "[Compound 27, (R)-2-(4-Fluorophenyl)-1-[(3-chlorophenyl)sulfonyl]-N-(pyrrolidin-3-yl)-1H-pyrrole-3-carboxamide]", "values": [
      {"measurement": "metabolic activity of cells (MTT test)", "setting": "HepG2 cells [1]; 0.1–25 μM", "result": "did not impair the metabolic activity of cells"},
      {"measurement": "IC50", "setting": "HepG2 cells [1]; Homo sapiens, printed in Figure 5A, read-out: IC50, cellular viability (MTT)", "result": 32.3, "unit": "µM"},
      {"measurement": "inhibition at 1 µM", "setting": "hERG channel", "result": 1, "unit": "%"},
      {"measurement": "inhibition at 1 µM", "setting": "α1A adrenoreceptor", "result": 15, "unit": "%"},
      {"measurement": "mutagenicity (Ames test)", "setting": "[2]", "result": "non-mutagenic"},
      {"measurement": "cell membrane integrity (LDH test)", "setting": "HepG2 cells [3]", "result": "did not affect the cell membrane integrity"}
    ]}
  ]
}
